The source of these data is US12234258B2, “Timosaponin compounds” (priority 2012, dated 2025).

Data set [1] deals with HepG2, human hepatoma cells. Briefly: Growth of cancer cell lines: HepG2. As to conditions: mean ± S.D., n = 3; read-out: IC50 against growth of HepG2. In kind it is cell-based.
In data set [2] the test system is SweAPP N2A cells. The data set is described as follows: Cell viability of SweAPP N2A cells. Type of data set: cell-based. The following applies: at concentrations that significantly inhibited Aβ production. The protocol:
Cells were treated with timosaponins or other test compounds, and the conditioned medium was collected and subjected to measurement of secreted Aβ and N-terminal secreted APP (sAPPα and sAPPβ) by ELISA using specific antibodies pair targeting to respective fragments. Lysates from cells treated with timosaponins were subjected to immunoblot analysis using antibodies against c-terminal of APP to detect the full length APP, α-CTF and β-CTF. Cell viability and cytotoxicity are examined by MTT and LDH release assays, respectively. Cell culture: Neuro-2A cells expressing Swedish mutants of APP (N2A-APPswe) ENREF 12 was cultured in minimal essential medium with 2 mM glutamine, 2 mM pyruvate and 10% fetal bovine serum. Cells were seeded at 6-well plate at 1×10^6 cells/mL and grown for two days until confluence. The medium was replaced and the test compounds were added at indicated concentrations for 24 hr. Cell viability was measured by standard MTT assays.

In data set [3] the test system is HeLa, human cervical carcinoma cells. Briefly: Growth of cancer cell lines: HeLa. Type of data set: cell-based. As to conditions: mean ± S.D., n = 3; read-out: IC50 against growth of HeLa.
Data set [4] concerns NCI-H460, human non-small lung carcinoma cells. Briefly: Growth of cancer cell lines: NCI-H460. In kind it is cell-based. The following applies: mean ± S.D., n = 3; read-out: IC50 against growth of NCI-H460.
Data set [5] concerns APP processing (FL APP, β-CTF, secreted Aβ) in SweAPP N2A cells. The data set is described as follows: Immunoblot analysis of APP processing in SweAPP N2A cells. In kind it is cell-based. The following applies: treated SweAPP N2A cells. The protocol: Cells obtained from Example 5 were washed with phosphate buffered saline and lysed with buffer containing Tris-Cl (50 mM, pH 7.4), NaCl ([…]), TRITON™ X-100 (1%) supplemented with protease inhibitors. Equal amount of proteins (30 μg) was resolved by 16.5% Tris-tricine gels and then transferred to nitrocellulose membrane with 0.2 µm pore size. For detection of secreted Aβ, 50 μL of the conditioned medium was mixed with sodium dodecyl sulfate (“SDS”) sample buffer and resolved accordingly. The membrane was blocked with Tris-buffered saline containing TWEEN™20 (0.1%) and bovine serum albumin (“BSA”) (3%) and then incubated with primary antibodies at 4° C. overnight, followed with appropriate secondary antibodies for 2 hours. The primary antibodies used included rabbit APP c-terminal antibody with 1:5000 dilution (obtained from Merck Bioscience) for detection of full length (“FL”) and CTFs, and mouse monoclonal 6E10 (obtained from Covance) for detection of secreted Aβ. The immunoreactivities were detected using enhanced chemiluminescence reagents (manufactured by GE Health care).
Immunoblot analysis: Cells were washed with phosphate buffered saline and lysed with buffer containing 50 mM Tris-Cl, pH 7.4, 150 mM NaCl, 1% Triton X-100 supplemented with protease inhibitors. Equal amount of proteins (30 μg) was resolved by 16.5% Tris-tricine gels and then transferred to nitrocellulose membrane with 0.2 µm pore size. For detection of secreted Aβ, sAPPα and sAPPβ, cells were treated with the timosaponins for 8 hr in complete medium which were then replaced with medium containing 0.1% FBS. After further incubation of 16 hr, 50 μL of the conditioned medium was mixed with SDS sample buffer and resolved accordingly. The membrane was blocked with Tris-buffered saline containing 0.1% TWEEN® 20 and 3% BSA and then incubated with primary antibodies at 4° C. overnight, followed with appropriate secondary antibodies for 2 hr. […] The immunoreactivities were detected using enhanced chemiluminescence reagents (GE Health care). […]
On the technique in general: Immunoblotting shows a protein as a band on a membrane.

The test system of data set [6] is Aβ1-42 production in SweAPP N2A cells (N2A-APPswe). Briefly: Aβ1-42 ELISA of conditioned medium of SweAPP N2A cells. Type of data set: cell-based. In general terms: ELISA stands for enzyme-linked immunosorbent assay.
Procedure: Neuro-2A cells expressing Swedish mutants of (“SweAPP N2A cells”) was cultured in minimal essential medium with glutamine (2 mM), pyruvate (2 mM) and fetal bovine serum (10%). Cells were seeded at 6-well plate at 1×10^6 cells/mL and grown overnight. The medium was replaced.
Conditioned medium was diluted with 2 part volume of ELISA diluents. Aβ1-42 concentrations were determined by using human Aβ1-42 ultrasensitive ELISA kit (manufactured by Invitrogen).
In data set [7] the test system is Aβ42, Aβ40 and Aβ38 in N2A-APPswe cells. The data set is described as follows: Aβ42, Aβ40 and Aβ38 profiles in conditioned medium by ELISA. In kind it is cell-based. The following applies: FIG. 18, 18 hr. The protocol:
Aβ ELISA: Aβ concentrations in conditioned medium were assayed using ELISA kits for human Aβ40, human Aβ42 (ultrasensitive) (Invitrogen) and Aβ38 (MyBioSource).
Cells were treated with various concentrations of (TAIII/TAI/AA/TAV) and DMSO vehicle (C) for 18 hr. In part A of FIG. 18, the expression of full length (FL) and CTF (c99 and c83) in cell lysates and secreted APP (sAPPα and sAPPP) in the conditioned medium were examined by immunoblot using methods specified in Example 6. In part B of FIG. 18, the profiles of Aβ42, Aβ40 and Aβ38 in the conditioned medium were determined by ELISA using methods specified in Example 5.

Data set [8] concerns SW480, human colon adenocarcinoma cells. The data set is described as follows: Growth of cancer cell lines: SW480. In kind it is cell-based. The following applies: mean ± S.D., n = 3; read-out: IC50 against growth of SW480.
Data set [9] has as its system SH-SY5Y neuronal cells transfected with mRFP-LC3. The data set is described as follows: Colocalization of exogenous labeled Aβ1-42 with mRFP-LC3 autophagic compartments. Type of data set: cell-based, Human. The following applies: 5 μM, 16 hours.
Data set [10] concerns Neuro-2A cells. Briefly: Neurite outgrowth of N2A cells. In kind it is cell-based.
Procedure: Immunofluorescence examination of neurite outgrowth: Neuro-2A cells were seeded at 1×10^5 cells per glass bottom dish. After treatment, cells were fixed with 4% paraformaldyde for 10 min, permeabilized with 0.1% Trition X-100, and then blocked with 1% BSA in PBS. The cells were incubated with monoclonal antibody raised against type III β-tubulin (Sigma) for 1 hr followed by Alexa488 conjugated secondary antibody. Neurite morphology was examined under fluorescence microscope.
The target of data set [11] is T1, BACE activity in cell lysates (Mus musculus, UniProt P56818).
T1 construct: endogenous in cells; host or cells: N2A-APPswe (Neuro-2A cells expressing Swedish mutant APP)
T1 sequence (P56818 46-501): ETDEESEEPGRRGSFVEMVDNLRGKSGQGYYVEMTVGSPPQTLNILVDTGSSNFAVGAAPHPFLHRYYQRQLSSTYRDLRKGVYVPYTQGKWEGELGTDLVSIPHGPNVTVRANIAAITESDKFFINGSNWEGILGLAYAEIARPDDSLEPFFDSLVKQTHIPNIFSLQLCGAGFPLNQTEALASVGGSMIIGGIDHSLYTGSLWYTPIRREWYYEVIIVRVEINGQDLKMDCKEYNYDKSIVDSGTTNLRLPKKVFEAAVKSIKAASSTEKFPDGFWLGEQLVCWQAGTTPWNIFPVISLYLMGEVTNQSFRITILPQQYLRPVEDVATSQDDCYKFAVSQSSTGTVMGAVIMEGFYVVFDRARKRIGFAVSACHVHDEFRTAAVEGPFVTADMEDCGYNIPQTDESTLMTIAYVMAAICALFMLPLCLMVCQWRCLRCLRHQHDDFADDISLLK
Briefly: BACE (β-secretase) activity in cell lysates. As to conditions: cells treated with compound. Type of data set: biochemical. The protocol: (§1) β-Secretase assays: Confluent N2A-APPswe cells were harvested and homogenized with 50 mM MES, pH 5.5. Protein extracts (10 μg) were incubated with TAIII for 1 hr at room temperature. The β-secretase activities were assayed by adding 10 μM fluorogenic β-secretase substrate (Millipore) to the reaction mixtures and fluorescence signals (excitation, 380 nm; emission, 460 nm) were measured. β-Secretase assays were also performed using purified BACE1 (Millipore) at 100 ng in a buffer of 50 mM MES, pH 5.5.

In data set [12] the target is T2, purified BACE1 enzyme (Homo sapiens, UniProt P56817).
T2 construct: purchased Millipore
T2 sequence (P56817 46-501, species assumed): as the sequence (P56818 46-501) above, with S6P, I162V, I165L, T180S, A182V, V340I, A393L, H443Q counted along it
The data set is described as follows: Purified BACE1 enzyme activity. In kind it is biochemical. The following applies: up to 100 μM. The protocol: as §1

Read-outs that look alike come from different tables or passages of the source.

On to `C[C@H]1CC[C@@]2(OC1)O[C@H]1C[C@H]3[C@@H]4CC[C@@H]5C[C@@H](O[C@@H]6O[C@H](CO)[C@H](O)[C@H](O)[C@H]6O[C@@H]6O[C@H](CO)[C@@H](O)[C@H](O)[C@H]6O)CC[C@]5(C)[C@H]4CC[C@]3(C)[C@H]1[C@@H]2C` [Timosaponin AIII], for which the IC50 in data set [1] worked out at 7.28 ± 0.56 µM; in data set [3], 7.47 ± 2.39 µM; in [4], 6.9 ± 0.31 µM; in data set [6] (Example 5, SweAPP N2A cells, 18 hours, ELISA, read-out: IC50, reduction of Aβ1-42 peptide secretion) it was 2 µM; in data set [6] (Example 9, SweAPP N2A cells, Aβ1-42 ELISA, read-out: ICS50, inhibitor of Aβ production) it was 2.5 µM; in data set [6] (Table 4, N2A-APPswe cells, mean ± S.D, n ≥ 3, read-out: IC50 in lowering Aβ42 production), 2.3 ± 0.2 µM. Besides, the IC50 in data set [8] stood at 12.2 ± 0.28 µM. The Cell viability entry in [2] is recorded as “did not affect the cell viability”. Besides, the “Aβ immunoreactivities in the conditioned medium” value in [5] is on record as “concomitant decrease”. Also, in data set [5], the “FL APP expression” value was “without significant changes”. Besides, the “Intracellular APP β-CTF expression” value in data set [5] was “significantly decreased”. The “Aβ profile (Aβ42 vs Aβ40 and Aβ38)” value in data set [7] is “preferentially lower Aβ42 production”. The “Colocalization of fluorophore labeled Aβ1-42 with mRFP-LC3 associated autophagic compartments” value in data set [9] is reported as “significantly colocalized”. Further, the Neurite outgrowth result in data set [10] (Example 8, 5 μM, 18 hours, N2A cells) was “significant extension and branching neuritis”; in data set [10] (FIG. 19, TAIII 5 μM, TAI 10 μM, SSG 25 μM, 18 hr, type III β-tubulin staining), “significant extension and branching of neurites”. The “BACE activity in cell lysates” value in data set [11] is “no change”. Moreover, the “Activity of purified BACE1 enzyme” value in [12] is “not affected”.
